Experimental data reported in patent US11499978B2, “Method for measuring quality of therapeutic cell through real-time glutathione measurement” (CELL2IN, INC., priority 2017, dated 2022).

Test system: hUC-MSCs
Experiment: CFU-F assay of hUC-MSCs
Assay type: cell-based, human
Conditions: 125 or 250 μg/mL AA2G for three days, n=3
Experimental: The inventors observed an effect of the material on stem cells by treating each stem cells with a material for enhancing a glutathione evaluation parameter. When hUC-MSCs were subcultured in a L-AA2G-containing medium, CFU-F, migration capacity, and an anti-inflammatory effect were observed. A CFU-F assay (n=3) was performed by treating hUC-MSCs with 125 or 250 μg/mL of AA2G for three days. As shown in FIGS. 16A and 16B, it was confirmed that, when AA2G was treated, CFU-F increased. In addition, as hUC-MSCs were treated with 125 or 250 μg/mL of AA2G for three days, PDGF-AA-induced migration capacity (n=3) was analyzed. As shown in FIGS. 17A and 17B, it was confirmed that the migration capacity was increased by AA2G treatment. In addition, the reduction in T cell proliferation, the reduction in T cell differentiation, and the promotion of Treg cell differentiation were observed by treating hUC-MSCs with 125 or 250 μg/mL of AA2G for three days. […] Meanwhile, hUC-MSCs were cultured with a glutathione precursor such as γ-glutamyl cysteine (GGC, 0.1, 0.25, and 0.5 mM). A CFU-F assay (n=3) was performed by treating hUC-MSCs with each concentration of GGC for 2 hours. […] In addition, SDF1α and PDGF-AA-induced migration capacities (n=3) were analyzed for hUC-MSCs without treatment with GGC, and SDF1α and PDGF-AA-induced migration abilities (n=3) were analyzed by treating hUC-MSCs with the increasing concentrations of GGC. STI571 was used as a PDGFR kinase inhibitor. As shown in FIGS. 20A to 20C, it was confirmed that, according to an increase in GGC treatment concentration, SDF1α- and PDGF-AA-induced migration capacities were enhanced. A CFU-F assay (n=3) was performed by treating hUC-MSCs with 0.2, 1, 2, and 4 μM ferrostatin-1 and 0.1, 0.5, 1, and 2 μM liproxstatin-1 for 24 hours.

For `O=C1O[C@H]([C@@H](O)CO)C(O)=C1O[C@H]1O[C@H](CO)[C@@H](O)[C@H](O)[C@H]1O` [AA2G, ascorbic acid 2-glucoside], the CFU-F was “increased”.
